Reference: PubChem BioAssay (NCI)
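1) Cells in 96-well plates. 2) Compound, 48 h, 5 concentrations. 3) Linear interpolation between surrounding doses. 4) Unreached endpoint = highest concentration. The concentration for full growth arrest is given as TGI.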

What was measured:
Experiment in all cases: inhibition of tumour cell growth, NCI panel, 48 h
OVCAR-4 ovarian = system: OVCAR-4 ovarian
OVCAR-8 ovarian = system: OVCAR-8 ovarian
U251 CNS = system: U251 CNS
COLO 205 colon = system: COLO 205 colon
NCI-H522 lung = system: NCI-H522 lung
RXF 393 renal = system: RXF 393 renal
T-47D breast = system: T-47D breast
UACC-62 melanoma = system: UACC-62 melanoma
A549 NSCLC = system: A549 NSCLC
MALME-3M melanoma = system: MALME-3M melanoma
RPMI-8226 leukemia = system: RPMI-8226 leukemia
CAKI-1 renal = system: CAKI-1 renal
SR leukemia = system: SR leukemia
SK-MEL-2 melanoma = system: SK-MEL-2 melanoma
UO-31 renal = system: UO-31 renal
KM12 colon = system: KM12 colon
SK-MEL-5 melanoma = system: SK-MEL-5 melanoma
MOLT-4 leukemia = system: MOLT-4 leukemia
SF-268 CNS = system: SF-268 CNS
HOP-62 NSCLC = system: HOP-62 NSCLC

Row | Structure (SMILES) | TGI (OVCAR-4 ovarian) [µM] | TGI (OVCAR-8 ovarian) [µM] | TGI (U251 CNS) [µM] | TGI (COLO 205 colon) [µM] | TGI (NCI-H522 lung) [µM] | TGI (RXF 393 renal) [µM] | TGI (T-47D breast) [µM] | TGI (UACC-62 melanoma) [µM] | TGI (A549 NSCLC) [µM] | TGI (MALME-3M melanoma) [µM] | TGI (RPMI-8226 leukemia) [µM] | TGI (CAKI-1 renal) [µM] | TGI (SR leukemia) [µM] | TGI (SK-MEL-2 melanoma) [µM] | TGI (UO-31 renal) [µM] | TGI (KM12 colon) [µM] | TGI (SK-MEL-5 melanoma) [µM] | TGI (MOLT-4 leukemia) [µM] | TGI (SF-268 CNS) [µM] | TGI (HOP-62 NSCLC) [µM]
1 | COC(=O)N/N=C(\c1ccccc1)c1ccc(OC)cc1 | > 100 | > 100 | > 100 | > 100 | > 100 | > 100 | > 100 | > 100 | > 100 | > 100 | > 100 | > 100 | > 100 | > 100 | > 100 | > 100 | > 100 | > 100 | > 100 | –
2 | CCOC(=O)CC(=O)CSc1c(-c2ccccc2)c(=O)n(-c2ccccc2)c(=S)n1-c1ccccc1 | > 100 | > 100 | > 100 | > 100 | > 100 | > 100 | > 100 | > 100 | > 100 | > 100 | – | > 100 | > 100 | – | > 100 | > 100 | – | > 100 | > 100 | > 100
3 | O=C(NCCCNCCCCNCCCNC(=O)c1cc(-c2ccccc2)nc2ccccc12)c1cc(-c2ccccc2)nc2ccccc12 | > 24.8 | – | – | – | 5.64 | 74.2 | 12.1 | 6.77 | 4.88 | 4.01 | – | 36.3 | 4.95 | – | 40 | – | 26.3 | 3.73 | – | 11.2
4 | N=c1oc2ccc(Cl)cc2cc1C(N)=O | 85.9 | > 100 | > 100 | > 100 | – | > 100 | 94.6 | 41.3 | > 100 | 37.1 | > 100 | > 100 | > 100 | 31.8 | – | 88.4 | 47 | > 100 | > 100 | –
5 | CC(=O)O[C@H]1C(=O)[C@@]2(C)C(C(OC(=O)c3ccccc3)[C@]3(O)CC(OC(=O)C(O)C(NC(=O)c4ccccc4)c4cccc(Cl)c4)C(C)=C1C3(C)C)[C@]1(OC(C)=O)CO[C@@H]1C[C@@H]2O (stereo partly drawn) | > 10 | > 10 | > 10 | > 10 | > 10 | – | > 10 | > 10 | > 10 | > 10 | 9.49 | > 10 | 6.72 | > 10 | – | > 10 | > 10 | > 10 | > 10 | > 10
6 | COc1ccc(/C=C2\N=C(c3ccccc3)OC2=O)cc1OC(C)=O | > 100 | > 100 | > 100 | > 100 | – | > 100 | > 100 | > 100 | > 100 | 68.6 | > 100 | – | 45 | 83.5 | > 100 | – | > 100 | 26.1 | > 100 | > 100
7 | CNc1ncnc2c1cnn2CCCCO | > 100 | – | > 100 | > 100 | > 100 | > 100 | > 100 | > 100 | > 100 | > 100 | > 100 | > 100 | > 100 | > 100 | > 100 | – | > 100 | > 100 | > 100 | > 100
8 | COc1ccc(/C=C2\CCc3cc(OC)c(OC)cc3C2=O)cc1 | > 10 | > 10 | > 10 | > 10 | – | > 10 | > 10 | > 10 | > 10 | > 10 | > 10 | > 10 | > 10 | > 10 | > 10 | > 10 | > 10 | > 10 | > 10 | > 10
9 | O=C(N/N=C/c1ccc(Cl)cc1)c1ccccc1Nc1ccccc1C(=O)N/N=C/c1ccc(Cl)cc1 | > 100 | > 100 | > 100 | > 100 | – | > 100 | > 100 | > 100 | > 100 | > 100 | > 100 | > 100 | > 100 | > 100 | > 100 | > 100 | > 100 | > 100 | > 100 | > 100
10 | Nc1c(Br)cc(-c2nc3ccccc3s2)cc1Br | – | > 100 | > 100 | > 100 | > 100 | > 100 | > 100 | > 100 | > 100 | > 100 | – | > 100 | > 100 | > 100 | > 100 | > 100 | > 100 | > 100 | > 100 | > 100
11 | CCCCc1ccc(Nc2nc(Cl)c3ncn(C4CC(Oc5ccc(C)cc5)C(COc5ccc(C)cc5)O4)c3n2)cc1 (stereo not drawn) | – | > 100 | – | > 100 | > 100 | > 100 | > 100 | > 100 | > 100 | > 100 | > 100 | 30.9 | > 100 | > 100 | > 100 | > 100 | > 100 | > 100 | > 100 | > 100
12 | COc1ccc2nc3c([N+](=O)[O-])ccc(NCCN(C)C)c3c(NCCN(C)C)c2c1 | 1.86 | 3.04 | – | > 10 | – | 2.33 | > 10 | > 10 | 4.26 | 7.69 | 1.97 | > 10 | 0.634 | – | – | 2.82 | 3.28 | 0.732 | > 10 | 2.73
13 | NCCNCCCNC(=O)c1cc(-c2ccccc2)nc2ccccc12 | – | > 100 | 36.6 | 30.9 | 37.6 | > 100 | > 100 | 46.3 | > 100 | 30.8 | > 100 | > 100 | 82.3 | 42.7 | > 100 | > 100 | 30.5 | 52.3 | > 100 | > 100
